# Where a name gives a salt, the structure may show the parent alone.
# Target: TYK2 JH2 pseudokinase (Homo sapiens, UniProt P29597)
# Test: Inhibitory activity on TYK2 JH2 pseudokinase (TR-FRET)
# Type: binding
# Conditions: 60 min room temperature, read-out: Kinase half maximal inhibitory concentration IC50 TYK2 JH2
# Experimental: In this experiment, the inhibitory effect of compounds on TYK2 JH2 pseudokinase was tested using the method of time-resolved fluorescence resonance energy transfer (TR-FRET). In the experiment, TYK2 JH2 or JAK1 JH2 pseudokinase can simultaneously bind to fluorescently labeled Tracer and Tb antibody to form a “sandwich structure”. Tb antibody, functioning as a fluorescent donor, produces fluorescence at a wavelength of 495 nm under the excitation of light at a specific wavelength. Tracer, functioning as a fluorescent acceptor, can receive fluorescence at a wavelength of 495 nm and thus produce fluorescence at a wavelength of 520 nm, i.e., a time-resolved fluorescence resonance energy transfer (TR-FRET) signal, only when it is within the “sandwich structure”, i.e., when it is sufficiently close to Tb antibody. When the compound is added to compete with Tracer for binding to the pseudokinase, the binding of Tracer decreases, leading to a weakened TR-FRET signal. The inhibitory activity of the compound binding to the pseudokinase can be reflected by the ratio of signal values at 520 nm/495 nm.
# The working solution consists of the following components: HEPES (pH 7.5) at a final concentration of 20 mM; MgCl2 at a final concentration of 10 mM; Brij-35 at a final concentration of 0.015%; DTT at a final concentration of 2 mM; and BSA at a final concentration of 50 μg/mL.
# • a) The compound was dissolved in DMSO to achieve a storage concentration of 10 mM. • b) Various concentrations of the compound, 200 times the final concentration, were prepared in a compound dilution plate and transferred to an Echo plate. • c) The Echo instrument was used to transfer 150 nL of the compound from the Echo plate to a 384-well experimental plate. • d) 5 μL of TYK2 JH2 kinase, at three times the final concentration, was added to the 384-well experimental plate. • e) 5 μL of Tb, at three times the final concentration, was added to the 384-well experimental plate. • f) 5 μL of Tracer, at three times the final concentration, was added to the 384-well experimental plate. • g) The plate was centrifuged for 30 seconds and then incubated at room temperature for 60 minutes. • h) The fluorescence signal values at 520 nm/495 nm were measured using an Envision plate reader (PerkinElmer).
# Data analysis was performed using the XL-Fit software to determine the IC50 of the compounds.
# Chain of TYK2 JH2 pseudokinase (P29597 589-875 limits assumed): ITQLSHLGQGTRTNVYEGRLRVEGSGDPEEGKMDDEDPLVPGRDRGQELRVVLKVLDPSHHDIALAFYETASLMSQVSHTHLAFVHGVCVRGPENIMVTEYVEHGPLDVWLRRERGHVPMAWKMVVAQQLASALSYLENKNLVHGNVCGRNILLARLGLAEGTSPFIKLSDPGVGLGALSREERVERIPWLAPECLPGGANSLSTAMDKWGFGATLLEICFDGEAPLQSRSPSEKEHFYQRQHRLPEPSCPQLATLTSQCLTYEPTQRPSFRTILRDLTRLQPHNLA
row,Structure (SMILES),IC50 [nM]
1,[2H]C([2H])([2H])NC(=O)c1cnc(NC(=O)C2CC2)cc1Nc1cccc(-c2ncc(S(C)(=O)=O)cn2)c1OC [Hydrochloride of WX-001],0.27
2,[2H]C([2H])([2H])NC(=O)c1cnc(NC(=O)C2CC2)cc1Nc1cccc(-c2ncc([S+](C)[O-])cn2)c1OC (stereo not shown) [Hydrochloride of WX-002],0.19
3,CNC(=O)c1cnc(NC(=O)C2CC2)cc1Nc1cccc(-c2ncc(S(=O)(=O)N3CCC3)cn2)c1OC [Hydrochloride of WX-018],0.13
4,[2H]C([2H])([2H])NC(=O)c1cnc(NC(=O)C2CC2)cc1Nc1cccc(-c2ncc(S(C)(=N)=O)cn2)c1OC (stereo not shown) [WX-003],0.34
5,[2H]C([2H])([2H])NC(=O)c1cnc(NC(=O)C2CC2)cc1Nc1cccc(-c2ccc(S(C)(=O)=O)cn2)c1OC [WX-004],0.2

# Target: Ba/F3-FL-TYK2-E957D cells (Homo sapiens, UniProt P29597, E957D, cells depend on it)
# Sequence (P29597 whole entry E957D): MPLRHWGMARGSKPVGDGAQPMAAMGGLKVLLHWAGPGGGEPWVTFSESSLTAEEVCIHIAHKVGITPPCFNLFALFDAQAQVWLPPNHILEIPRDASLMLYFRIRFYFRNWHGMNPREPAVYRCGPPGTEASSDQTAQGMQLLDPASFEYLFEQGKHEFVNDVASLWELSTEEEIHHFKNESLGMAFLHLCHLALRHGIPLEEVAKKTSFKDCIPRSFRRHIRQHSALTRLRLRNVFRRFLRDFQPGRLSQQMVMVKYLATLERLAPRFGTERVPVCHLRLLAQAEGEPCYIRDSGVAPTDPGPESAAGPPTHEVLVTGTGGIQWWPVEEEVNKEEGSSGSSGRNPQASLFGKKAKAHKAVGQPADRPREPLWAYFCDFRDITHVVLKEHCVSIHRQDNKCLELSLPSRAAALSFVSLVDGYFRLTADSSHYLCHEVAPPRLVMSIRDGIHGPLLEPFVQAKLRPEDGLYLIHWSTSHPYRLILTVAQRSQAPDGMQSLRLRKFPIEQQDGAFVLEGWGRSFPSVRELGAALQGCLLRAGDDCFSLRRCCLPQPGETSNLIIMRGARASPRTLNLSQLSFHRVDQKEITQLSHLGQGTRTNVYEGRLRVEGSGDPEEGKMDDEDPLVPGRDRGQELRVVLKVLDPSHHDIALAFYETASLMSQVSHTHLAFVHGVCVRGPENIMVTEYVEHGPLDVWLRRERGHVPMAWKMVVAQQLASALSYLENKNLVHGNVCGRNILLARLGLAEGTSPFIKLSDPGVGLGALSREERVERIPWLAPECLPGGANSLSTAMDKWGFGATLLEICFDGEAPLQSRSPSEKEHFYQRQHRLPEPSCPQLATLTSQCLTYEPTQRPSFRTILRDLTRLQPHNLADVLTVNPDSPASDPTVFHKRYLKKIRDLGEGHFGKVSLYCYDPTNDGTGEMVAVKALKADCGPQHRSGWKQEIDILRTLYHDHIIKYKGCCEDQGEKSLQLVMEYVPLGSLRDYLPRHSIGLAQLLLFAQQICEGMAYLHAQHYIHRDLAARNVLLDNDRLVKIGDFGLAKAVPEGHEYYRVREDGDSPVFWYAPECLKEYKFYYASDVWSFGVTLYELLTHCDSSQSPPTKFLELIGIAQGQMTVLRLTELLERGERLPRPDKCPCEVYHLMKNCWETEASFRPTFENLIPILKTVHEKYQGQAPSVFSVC
# Test: Proliferation of Ba/F3-FL-TYK2-E957D cells (CellTiter-Glo)
# Type: cell-based, mouse
# Conditions: 72 hours, read-out: Half maximal inhibitory concentration IC50 for cells Ba/F3-FL-TYK2-E957D
# Source text: Adenosine triphosphate (ATP) serves as a universal energy carrier in various life processes, representing the smallest unit of energy storage and transfer. The CellTiter-Glo™ Luminescent Cell Viability Assay Kit utilizes luciferase as a detection agent. During the luminescent process, luciferase requires the participation of ATP. By adding CellTiter-Glo™ reagent to the cell culture medium and measuring the luminescence, the light signal was directly proportional to the amount of ATP in the system, and ATP was positively correlated with the number of viable cells. Therefore, cell proliferation can be detected by measuring ATP content using the CellTiter-Glo kit. In this test, the cell lines used were Ba/F3-FL-TYK2-E957D and Ba/F3-TEL-TYK2. Ba/F3-FL-TYK2-E957D cells can stably express the exogenously introduced human TYK2-E957D gene, and the TYK2-E957D gene sequence contains both JH1 and JH2 domains. On the other hand, Ba/F3-TEL-TYK2 cells can stably express the exogenously introduced human TEL-TYK2 gene, and the TEL-TYK2 gene sequence contains only the JH1 domain of TYK2.
# The cell lines were cultured in an incubator at 37° C. with 5% CO2. Regular passaging was performed, and cells in the logarithmic growth phase were selected for plating.
# • a) The test compounds were prepared into a 10 mM solution with DMSO, and then diluted to 0.3 or 1 mM with DMSO. • b) Preparation of 1000× compound storage plate (tube): The compounds were 3-fold serially diluted from the highest concentration to the lowest concentration, creating 9 different concentrations. • c) Preparation of 20× compound working solution: 49 μL of cell culture medium was added to a flat-bottomed 96-well transparent drug plate. From the 1000× compound storage plate, 1 μL of the compound was pipetted into the cell culture medium in the 96-well transparent drug plate. In the solvent control, 1 μL of DMSO was added. After the compound or DMSO was added, the mixture was homogenized using a multi-channel pipette.
# • a) Cells were stained with trypan blue and viable cells were counted to ensure a cell viability of 90% or more. • b) 95 μL of cell suspension (2000 cells/well) was added to each well of the compound assay cell plate, and cell-free culture medium containing 0.1% DMSO was added to the Min control wells. • c) Administration in the compound assay cell plate: 5 μL of 20× compound working solution was added to the cell culture plate. 5 μL of DMSO-cell culture medium mixture was added to the Max control wells. The final concentration of DMSO was 0.1%. • d) The culture plate was then incubated in an incubator at 37° C. with 5% CO2 for 72 hours.
# The following steps were conducted in accordance with the instructions of the Promega CellTiter-Glo Luminescent Cell Viability Assay Kit (Promega-G7573). • a) CellTiter-Glo buffer was thawed and brought to room temperature. • b) CellTiter-Glo substrate was also brought to room temperature. • c) CellTiter-Glo buffer was added to a bottle of CellTiter-Glo substrate to dissolve the substrate, thereby preparing CellTiter-Glo working solution. • d) The mixture was slowly vortexed and shaken to be fully dissolved. • e) The cell culture plate was removed and allowed to equilibrate to room temperature for 10 minutes. • f) 50 μL (equal to half the volume of cell culture medium in each well) of CellTiter-Glo working solution was added to each well. • g) The culture plate was shaken on an orbital shaker for 2 minutes to induce cell lysis. • h) The plate was then left at room temperature for 10 minutes to stabilize the luminescent signal. • i) The luminescent signal was detected using a SpectraMax Paradigm plate reader.
# Data analysis was conducted using GraphPad Prism 5.0 software. Nonlinear S-curve regression was employed to fit the data and generate dose-response curves. From these curves, the IC50 values were calculated.
row,Structure (SMILES),GI50 [nM]
1,[2H]C([2H])([2H])NC(=O)c1cnc(NC(=O)C2CC2)cc1Nc1cccc(-c2ncc(S(C)(=O)=O)cn2)c1OC [Hydrochloride of WX-001],13.7
2,[2H]C([2H])([2H])NC(=O)c1cnc(NC(=O)C2CC2)cc1Nc1cccc(-c2ncc([S+](C)[O-])cn2)c1OC (stereo not shown) [Hydrochloride of WX-002],19.2
3,CNC(=O)c1cnc(NC(=O)C2CC2)cc1Nc1cccc(-c2ncc(S(=O)(=O)N(C)C)cn2)c1OC [Hydrochloride of WX-017],4
4,CNC(=O)c1cnc(NC(=O)C2CC2)cc1Nc1cccc(-c2ncc(S(=O)(=O)N3CCC3)cn2)c1OC [Hydrochloride of WX-018],4.2
5,[2H]C([2H])([2H])NC(=O)c1nnc(NC(=O)C2CC2)cc1Nc1cc(F)cc(-c2ccc(P(C)(C)=O)cc2)c1OC [Hydrochloride of WX-027],18.3
6,CNC(=O)c1nnc(NC(=O)C2CC2)cc1Nc1cccc(-c2ncc(S3(=O)=NCCCC3)cn2)c1OC (stereo not shown) [Hydrochloride of WX-029],3.8
7,COc1c(Nc2cc(NC(=O)C3CC3)nnc2C(N)=O)cccc1-c1ncc(S(=N)(=O)C(C)C)cn1 (stereo not shown) [Hydrochloride of WX-031],2.6
8,COc1c(Nc2cc(NC(=O)C3CC3)nnc2C(N)=O)cccc1-c1ccc(S(=N)(=O)C(C)C)cn1 (stereo not shown) [Hydrochloride of WX-032],2.9
9,[2H]C([2H])([2H])NC(=O)c1cnc(NC(=O)C2CC2)cc1Nc1cccc(-c2ncc(S(=N)(=O)C(C)C)cn2)c1OC (stereo not shown) [Trifluoroacetate of WX-009],12.1
10,CN=S(=O)(c1ccc(-c2cccc(Nc3cc(NC(=O)C4CC4)nnc3C(=O)NC)c2OC)nc1)C(C)C (stereo not shown) [Trifluoroacetate of WX-014],10.9
11,CNC(=O)c1cnc(NC(=O)C2CC2)cc1Nc1cc(F)cc(-c2ccc(S(C)(=O)=O)cc2)c1OC [Trifluoroacetate of WX-026],18.8
12,COc1c(Nc2cc(NC(=O)C3CC3)nnc2C(N)=O)cccc1-c1ccc(P(=O)(C2CC2)C2CC2)cn1 [Trifluoroacetate of WX-035],6.7
13,[2H]C([2H])([2H])NC(=O)c1cnc(NC(=O)C2CC2)cc1Nc1cccc(-c2ccc(S(C)(=O)=O)cn2)c1OC [WX-004],5.5
14,[2H]C([2H])([2H])NC(=O)c1cnc(NC(=O)C2CC2)cc1Nc1cccc(-c2ncc(S(=O)(=O)N(C)C)cn2)c1OC [WX-005],2.2
15,CN=S(=O)(c1cnc(-c2cccc(Nc3cc(NC(=O)C4CC4)nnc3C(=O)NC)c2OC)nc1)C(C)C (stereo not shown) [WX-013],12.1
16,CCP(=O)(CC)c1ccc(-c2cccc(Nc3cc(NC(=O)C4CC4)nnc3C(=O)NC)c2OC)nc1 [WX-022],13.7
17,CNC(=O)c1nnc(NC(=O)C2CC2)cc1Nc1cccc(-c2ccc(P(=O)(C(C)C)C(C)C)cc2)c1OC [WX-023],13.8
18,CNC(=O)c1nnc(NC(=O)C2CC2)cc1Nc1cccc(-c2ccc(P(=O)(C3CC3)C3CC3)cc2)c1OC [WX-024],10
19,CCP(=O)(CC)c1ccc(-c2cccc(Nc3cc(NC(=O)C4CC4)ncc3C(=O)NC)c2OC)cc1 [WX-025],12.7
20,CNC(=O)c1nnc(NC(=O)C2CC2)cc1Nc1cccc(-c2ncc(S(=N)(=O)C3CC3)cn2)c1OC (stereo not shown) [WX-028],4
21,CNC(=O)c1cnc(NC(=O)C2CC2)cc1Nc1cc(F)cc(-c2ncc(S(=O)(=O)C(C)C)cn2)c1OC [WX-030],2
22,CNC(=O)c1cnc(NC(=O)C2CC2)cc1Nc1cccc(-c2ccc(S(=O)(=O)C(C)C)nn2)c1OC [WX-038],3
23,CNC(=O)c1cnc(NC(=O)C2CC2)cc1Nc1cccc(-c2ccc(S(=O)(=O)C(C)C)nc2)c1OC [WX-039],4.7

# From patent US20240335462A1, “SULFUR/PHOSPHORUS-CONTAINING ARYL COMPOUND AND APPLICATION THEREOF” (MEDSHINE DISCOVERY INC., priority 2021, published 2024)
